Results published in PMC10108276, “Siderophore‐Linked Ruthenium Catalysts for Targeted Allyl Ester Prodrug Activation within Bacterial Cells” (Chemistry (Weinheim an Der Bergstrasse, Germany), 2022).
≈ marks a conversion by molar mass, not a printed value. Like-named read-outs stand apart in the source and are kept apart here.

Columns and labels:
E. coli K12 (BW25113) [1] = assay: prodrug uptake assay (incubation, HPLC of extracellular and wash samples); format: cell-based, Escherichia coli
HeLa = assay: MTT-based proliferation assay, HeLa; format: cell-based, human; settings: 48 h
Excerpt: (§1) 7. Cytotoxicity against Mammalian Cells
(§2) 7.1. Cell viability assays for Moxi, C-Moxi and Ru-s4
(§3) Dulbecco’s Modified Eagle’s Medium (DMEM: [+] 4.5 g/L D-Glucose, L-Glutamine; [-]
(§4) Pyruvate), containing 10% fetal calf serum, 1% penicillin and streptomycin, was used
(§5) as growth medium for HeLa cells. DMEM ([+] 1 g/L D-Glucose; [+] Pyruvate),
(§6) containing 10% fetal calf serum, 1% penicillin and streptomycin, was respectively used
(§7) for GM5657 cells. HeLa and GM5657 cells were detached from the wells with trypsin
(§8) and EDTA, harvested by centrifugation and resuspended in the respective cell culture
(§9) medium. The assays were carried out on 96 well plates with a density of 6000 cells
(§10) per well. After 24 h of incubation at 37°C and 10% CO2, the cells were treated with
(§11) Moxi, C-Moxi and Ru-s4 (constant DMSO concentrations of 0.5%) with a final volume
(§12) of 200 µL per well. For a negative control, one series of cells were only treated with
(§13) 0.5% DMSO, and for a positive control, one series was treated with cisplatin. After 48
(§14) h of incubation, 50 µL PBS containing MTT (2.5 mg/mL) was added. The cells were
(§15) incubated for an additional 2 h. Afterwards, the medium was removed, and 200 µL of
(§16) DMSO were added. The formazan crystal absorption was measured at 550 nm, using
(§17) a reference wavelength of 650 nm. Each assay was carried out in triplicates (three
(§18) independent experiments) for each cell line, Table S3.

GM5657 = assay: MTT-based proliferation assay, GM5657; format: cell-based, human; settings: 48 h
Excerpt: as §1, §2, §3, §4, §5, §6, §7, §8, §9, §10, §11, §12, §13, §14, §15, §16, §17, §18

[2] = solubility as observed in the assays; format: physicochemical
E. coli K12 (BW25113) [3] = assay: antibacterial activity (dosage-response, 24 h) under iron-limited, micro-aerobic conditions
E. coli K12 (BW25113) [4] = assay: prodrug incubation experiment: C-moxi preloading, washing, catalyst addition (18 h); settings: substrate at upper nontoxic concentration
E. coli K12 (BW25113) [5] = assay: catalyst-prodrug co-addition growth assay (24 h) with siderophore controls; settings: without C‐moxi, MHII + 200 μM bpy, 2 % O2, 24 h
E. coli K12 (BW25113) [6] = assay: effect of catalyst-siderophore conjugates on bacterial growth (dose-response, 24 h); settings: at 10 μM, MHII + 200 μM bpy, 2 % O2, 24 h
[7] = C-moxi 10 µM, relative to 'no cell' controls
[8] = Mean of three runs, tested range 0.05–100 μM
[9] = MHII + 200 μM bpy, 2 % O2, 37 °C, 24 h

Question: Which results are given for C=CCOC(=O)c1cn(C2CC2)c2c(OC)c(N3C[C@@H]4CCCN[C@@H]4C3)c(F)cc2c1=O [C‐moxi]?
Answer: Remainder (E. coli K12 (BW25113) [1]; C-moxi 10 µM, 100 % minus extracellular and wash): 16.4%; Uptake (E. coli K12 (BW25113) [1]; C-moxi 10 µM, incubation OD600 0.1): 3.31 nmol OD600-1; Extracellular (E. coli K12 (BW25113) [1]; [7]): 82.7%; Wash (E. coli K12 (BW25113) [1]; [7]): 0.9%; internalisation (bacterial uptake) of prodrug (E. coli K12 (BW25113) [1]; C‐moxi added at 10 μM, 15 min at 37 °C, exponential growth, iron-limited, micro-aerobic): 16%; IC50 (HeLa; [8]): > 100 µM; IC50 (HeLa; Run 2): > 100 µM; IC50 (HeLa; Run 3): > 100 µM; IC50 (HeLa; Homo sapiens, Run 1): > 100 µM; IC50 (GM5657; [8]): > 100 µM; IC50 (GM5657; Run 2): > 100 µM; IC50 (GM5657; Run 3): > 100 µM; IC50 (GM5657; Homo sapiens, Run 1): > 100 µM; solubility ([2]; bacterial growth assay medium, read-out: solubility limit): 500 µM (≈ 221 µg/mL); concentrations at which no antibacterial activity is seen (E. coli K12 (BW25113) [3]; [9]): < 10 µM; times less toxic than the parent antibacterial Moxi (E. coli K12 (BW25113) [3]; bacterial assays, E. coli K12): ~300

Question: For COc1c(N2C[C@@H]3CCCN[C@@H]3C2)c(F)cc2c(=O)c(C(=O)O)cn(C3CC3)c12 [Moxi, moxifloxacin], which IC50 (HeLa; [8]) is on record?
Answer: Its IC50 is > 100 µM.

Question: What about the IC50 (HeLa; Run 2) of the same molecule?
Answer: Its IC50 is > 100 µM.

Question: And the IC50 (HeLa; Run 3)?
Answer: The IC50 was > 100 µM.

Question: And the IC50 (HeLa; Homo sapiens, Run 1)?
Answer: The IC50 was > 100 µM.

Question: And the IC50 (GM5657; [8])?
Answer: Its IC50 is > 100 µM.

Question: What about the IC50 (GM5657; Run 2) of the same molecule?
Answer: The IC50 was > 100 µM.

Question: And the IC50 (GM5657; Run 3)?
Answer: Its IC50 is > 100 µM.

Question: And the IC50 (GM5657; Homo sapiens, Run 1)?
Answer: Its IC50 is > 100 µM.

Question: What about the “difference between C‐moxi and DMSO incubations (in words)” value (E. coli K12 (BW25113) [4]) of the same molecule?
Answer: Its value is “no significant difference between incubations”.

Question: And the “concentrations at which no antibacterial activity is observed” value (E. coli K12 (BW25113) [3]; [9])?
Answer: Its value is < 10 nM.

Question: Which “effect on growth relative to the no addition control, substance alone” value (E. coli K12 (BW25113) [5]) does the source give for O=C(O)c1cccc(O)c1O [DHB, 2,3‐dihydroxybenzoic acid] here?
Answer: Its value is “improve growth”.

Question: Which IC50 (HeLa; [8]) does the source give for N.N.[Cl][Pt][Cl] [Cisplatin, cisplatin] here?
Answer: The IC50 was 17 µM.

Question: What about the IC50 (HeLa; Run 1) of the same molecule?
Answer: Its IC50 is 12.6 µM.

Question: And the IC50 (HeLa; Run 2)?
Answer: Its IC50 is 20.6 µM.

Question: And the IC50 (HeLa; Run 3)?
Answer: Its IC50 is 17.8 µM.

Question: And the IC50 (GM5657; [8])?
Answer: The IC50 was 18.8 µM.

Question: What about the IC50 (GM5657; Run 1) of the same molecule?
Answer: Its IC50 is 19.5 µM.

Question: And the IC50 (GM5657; Run 2)?
Answer: Its IC50 is 18 µM.

Question: And the IC50 (GM5657; Run 3)?
Answer: Its IC50 is 18.9 µM.

Question: For CC(=O)N(O)CCCCCNC(=O)CCC(=O)N(O)CCCCCNC(=O)CCC(=O)N(O)CCCCCN [DFO, desferrioxamine B], which “effect on growth relative to the no addition control, substance alone” value (E. coli K12 (BW25113) [5]) is on record?
Answer: Its value is “does not improve growth”.

Question: What does the source list for C=CCOC(=O)N1CCC[C@H]2CN(c3c(F)cc4c(=O)c(C(=O)O)cn(C5CC5)c4c3OC)C[C@H]21 [N‐moxi]?
Answer: solubility ([2]; 10 % DMSO in aqueous MOPS buffer, HPLC kinetics): poor solubility; concentrations at which no antibacterial activity is seen (E. coli K12 (BW25113) [3]; [9]): < 10 µM

Question: With O=C(O)CC(O)(CC(=O)O)C(=O)O [citrate] as the molecule, how does the “effect on growth relative to the no addition control, substance alone” value (E. coli K12 (BW25113) [5]) read?
Answer: The value was “improve growth”.

Question: Which “change of overall growth compared to no addition” value (E. coli K12 (BW25113) [6]) does the source give for [Cl][Fe]([Cl])[Cl] [FeCl3] here?
Answer: The value was “tenfold”.

Question: For O=C(NCCCC[C@H](NC(=O)c1cccc(O)c1O)C(=O)O)c1cccc(O)c1O [azotochelin], which “effect on growth relative to the no addition control, substance alone” value (E. coli K12 (BW25113) [5]) is on record?
Answer: Its value is “improve growth”.
